These results are taken from PubChem BioAssay (NCI).

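Briefly, cells in 96-well plates were exposed to five compound concentrations for 48 h, and endpoints were estimated by linear interpolation. TGI denotes the concentration required for complete inhibition of growth.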

Test systems include 786-0 renal; A549 NSCLC; CAKI-1 renal; CCRF-CEM leukemia; HL-60(TB) leukemia; HOP-92 NSCLC; LOX IMVI melanoma; MALME-3M melanoma; NCI-H226 lung; NCI-H23 lung; NCI-H460 lung; OVCAR-3 ovarian; OVCAR-5 ovarian; OVCAR-8 ovarian; SF-295 CNS; SK-OV-3 ovarian; T-47D breast; TK-10 renal; U251 CNS.
Holding throughout (test): NCI anticancer screen, dose series, 48 h

With `Cc1ccc2c(=O)cc(-c3ccsc3)[nH]c2n1`, the TGI in the experiment on 786-0 renal was over 100 µM; in the experiment on A549 NSCLC, over 44.7 µM; with CAKI-1 renal, over 100 µM; in the experiment with CCRF-CEM leukemia, over 83 µM; with HL-60(TB) leukemia, 20.2 µM; with HOP-92 NSCLC, over 100 µM. The TGI in the experiment on LOX IMVI melanoma is over 56.6 µM; in the experiment with MALME-3M melanoma, over 100 µM; with NCI-H226 lung, 56.8 µM; in the experiment with NCI-H23 lung it was over 25.2 µM; in the experiment on NCI-H460 lung it was over 100 µM; in the experiment on OVCAR-3 ovarian it was over 100 µM. Further, the TGI is over 100 µM in the experiment on OVCAR-5 ovarian; over 100 µM in the experiment on OVCAR-8 ovarian; 23.6 µM in the experiment on SF-295 CNS; 72.6 µM in the experiment with SK-OV-3 ovarian; over 74.9 µM with T-47D breast; over 100 µM in the experiment with TK-10 renal. This molecule came in with a TGI in the experiment with U251 CNS of over 55.2 µM.

Consider `O=c1c2cc([N+](=O)[O-])ccc2nc2n1CCCCC2`, for which the TGI with 786-0 renal, in the experiment with A549 NSCLC, in the experiment on CAKI-1 renal, in the experiment on CCRF-CEM leukemia, with HL-60(TB) leukemia and with HOP-92 NSCLC was over 100 µM each time. The TGI in the experiment on LOX IMVI melanoma, in the experiment with MALME-3M melanoma, with NCI-H226 lung, in the experiment with NCI-H23 lung, in the experiment with NCI-H460 lung and with OVCAR-3 ovarian was over 100 µM each time. For the same molecule, the TGI with OVCAR-5 ovarian, with OVCAR-8 ovarian, in the experiment on SF-295 CNS, with SK-OV-3 ovarian, in the experiment on T-47D breast and in the experiment with TK-10 renal was over 100 µM each time. The same molecule came in with a TGI in the experiment on U251 CNS of over 100 µM.

`COCn1c(C)c(C)c2c(=O)oc(N(C)C)nc21`: the TGI with 786-0 renal, with A549 NSCLC, in the experiment with CAKI-1 renal, in the experiment on CCRF-CEM leukemia, in the experiment on HL-60(TB) leukemia and in the experiment on HOP-92 NSCLC was over 100 µM in each case. Besides, the TGI with LOX IMVI melanoma, with MALME-3M melanoma, in the experiment on NCI-H226 lung, in the experiment on NCI-H23 lung, in the experiment on NCI-H460 lung and in the experiment with OVCAR-5 ovarian was over 100 µM in each case. Moreover, the TGI in the experiment on OVCAR-8 ovarian, in the experiment on SF-295 CNS, in the experiment on SK-OV-3 ovarian, in the experiment with T-47D breast, in the experiment with TK-10 renal and in the experiment on U251 CNS was over 100 µM in each case.

Turning to `C[C@]12CC[C@H](O)CC1=CC[C@@H]1[C@@H]2CC[C@]2(C)C(=N/O)/C(=C/c3ccc([N+](=O)[O-])cc3)C[C@@H]12`, the TGI in the experiment with 786-0 renal was 7.67 µM; in the experiment with A549 NSCLC, 17.7 µM; with CAKI-1 renal, 32.9 µM; with CCRF-CEM leukemia it was over 100 µM; in the experiment with HL-60(TB) leukemia, 25 µM; with HOP-92 NSCLC it was 14.9 µM. Besides, the TGI was 21.5 µM with LOX IMVI melanoma; 22.1 µM in the experiment on MALME-3M melanoma; 6.59 µM in the experiment on NCI-H226 lung; 25.6 µM in the experiment with NCI-H23 lung; 18.5 µM with NCI-H460 lung; 5.06 µM in the experiment on OVCAR-3 ovarian. The TGI was 21.5 µM with OVCAR-5 ovarian; 9.75 µM in the experiment on OVCAR-8 ovarian; 10.7 µM in the experiment on SF-295 CNS; 22.5 µM in the experiment on SK-OV-3 ovarian; 30.5 µM with T-47D breast.

Turning to `CCOC(=O)C(NCc1cccc(C(F)(F)F)c1)(NC(=O)CC)C(F)(F)F` (centres undefined), the TGI with 786-0 renal, with A549 NSCLC, in the experiment with CAKI-1 renal, with CCRF-CEM leukemia, in the experiment with HL-60(TB) leukemia and in the experiment with HOP-92 NSCLC was over 100 µM in each case. The TGI with LOX IMVI melanoma, with MALME-3M melanoma, with NCI-H226 lung, with NCI-H23 lung, in the experiment with OVCAR-3 ovarian and in the experiment with OVCAR-5 ovarian was over 100 µM each time. Also, the TGI with OVCAR-8 ovarian, in the experiment on SF-295 CNS, with SK-OV-3 ovarian, in the experiment with T-47D breast, in the experiment with TK-10 renal and in the experiment with U251 CNS was over 100 µM each time.

With `O=C(c1cc2c(c3ccccc13)NCCN=C2C(F)(F)F)C(F)(F)F`, the TGI in the experiment with 786-0 renal was 84.8 µM; with CAKI-1 renal it was over 100 µM; with CCRF-CEM leukemia, over 100 µM; with HL-60(TB) leukemia it was 75.4 µM; in the experiment with HOP-92 NSCLC, 86.6 µM; with LOX IMVI melanoma it was 38.4 µM. For the same molecule, the TGI in the experiment with NCI-H226 lung was 47.1 µM; in the experiment with NCI-H23 lung, over 100 µM; in the experiment with NCI-H460 lung, 34.4 µM; with OVCAR-3 ovarian it was 80.9 µM; with OVCAR-5 ovarian, over 100 µM; in the experiment with OVCAR-8 ovarian, over 100 µM. Also, the TGI was 50.1 µM in the experiment on SF-295 CNS; 93.2 µM in the experiment with SK-OV-3 ovarian; over 100 µM with T-47D breast; 78 µM in the experiment with TK-10 renal; 36.9 µM in the experiment on U251 CNS.

For `CC(=O)O[C@H]1CCC2[C@@H]3CCC4Cc5nc6c(nc5C[C@]4(C)C3CC[C@@]21C)CC1CC[C@@H]2C(CC[C@@]3(C)C2CC[C@@H]3C(C)CCCC(C)C)[C@@]1(C)C6` (some centres undefined), the TGI in the experiment with 786-0 renal, in the experiment with A549 NSCLC, in the experiment on CCRF-CEM leukemia, with HL-60(TB) leukemia, in the experiment on HOP-92 NSCLC and with LOX IMVI melanoma was over 100 µM in each case. In addition, the TGI in the experiment on MALME-3M melanoma, with NCI-H226 lung, with NCI-H23 lung, in the experiment on NCI-H460 lung, in the experiment on OVCAR-3 ovarian and in the experiment with OVCAR-5 ovarian was over 100 µM each time. Further, the TGI with OVCAR-8 ovarian, in the experiment on SF-295 CNS, in the experiment on SK-OV-3 ovarian, with T-47D breast, in the experiment with TK-10 renal and with U251 CNS was over 100 µM throughout.

As for `CC(=O)O[C@H]1C(=O)[C@@]2(C)[C@H]([C@H](OC(=O)c3ccccc3)[C@]3(O)C[C@H](OC(=O)[C@H](O)[C@@H](NC(=O)C(C)(C)C)c4ccccc4)C(C)=C1C3(C)C)[C@]1(OC(C)=O)CO[C@@H]1C[C@@H]2O`, the TGI was over 5.47 µM with 786-0 renal; over 10 µM with A549 NSCLC; over 10 µM in the experiment on CAKI-1 renal; over 10 µM in the experiment with CCRF-CEM leukemia; 0.0791 µM with HL-60(TB) leukemia; over 10 µM in the experiment with HOP-92 NSCLC. In addition, the TGI in the experiment on LOX IMVI melanoma was over 10 µM; with MALME-3M melanoma, over 10 µM; in the experiment with NCI-H226 lung, over 10 µM; in the experiment on NCI-H23 lung, over 10 µM; in the experiment with NCI-H460 lung, over 10 µM; in the experiment on OVCAR-5 ovarian, over 8.6 µM. For the same molecule, the TGI with OVCAR-8 ovarian is over 3.84 µM; in the experiment with SF-295 CNS, 1.61 µM; in the experiment on SK-OV-3 ovarian, 0.368 µM; in the experiment with T-47D breast, over 10 µM; in the experiment with TK-10 renal, over 10 µM; in the experiment on U251 CNS, over 3.9 µM.
